From patent US20120034162A1, “Fullerene Assisted Cell Penetrating Peptides” (William March Rice University, priority 2006, published 2012)
Entries after “also recorded” stand apart in the source; their conditions may differ. Primed or numbered codes have the meaning given here. Ends that are not written are not given here. Baa″ = fullerene (C60, Bucky) amino acid derivative of phenylalanine; Baa = not defined here

Assays:
[1] = Peptide aggregation, particle size in solution by dynamic light scattering (DLS); format: physicochemical; settings: PBS buffer; for aggregate size, major (or single) component: 0.125-2.0 mg/mL
Procedure: (§1) Rink amide and Wang resin were obtained from Novabiochem, USA. Amino acids were purchased from Novabiochem and used as received. MALDI-TOF mass analysis was performed on a linear Protein-TOF Bruker instrument using sinipinic acid as the matrix. CD spectra were obtained on a Jasco J-700 dichrometer using 1 mm path-length quartz cells. Peptide solutions were 1.0 mg·mL^−1 solution in milliQ H2O or PBS buffer. In the case of peptides (21, 22 and 23), the pH was first adjusted to 10 to break up any aggregations and then adjusted by addition of 0.1 mM HCl until the desired pH was obtained. CD spectra were recorded in millidegrees and converted to residual molar ellipticity. TEM measurements were performed on a JEOL 2010 TEM at 200 kV. DLS Measurements were performed on the samples using an Brookhaven 90Plus submicron particle-size analyzer with HeNe laser (30 mW) that operates at […] wavelength.
With reference back to Table 1, in order to understand the intracellular transport of the FITC functionalized Baa-peptides, 25 and Baa-Lys(FITC)-NLS (26), their particle size in solution was determined by dynamic light scattering (DLS). Three series of solutions of 24, 25 and 26 in the range of 0.125-2.0 mg/mL was prepared by weighing method. PBS buffer prepared from HPLC grade water was used as solvent and was filtered through a […] cup filter (Millipore, Express).

[2] = format: in vitro ADME, bovine
Source text: Peptide stability. In order to test the stability of the fullerene peptide linkage, samples of Baa-Lys(FITC)-Lys8-OH and H-Baa-Lys(FITC)-NLS were exposed to bovine plasma for up to 3 days and analyzed by HPLC.

[3] = Aggregate size and morphology by cryo-TEM; format: physicochemical; settings: 1.0 mg/mL in PBS buffer, pH 7
Procedure: To further examine the actual aggregate size and morphology, cryo-TEM experiments were performed for both peptides 25 and 26. The images were taken in the concentration of 1.0 mg/mL for both peptides. Samples for cryo-TEM studies were prepared by dipping a copper grid coated with amorphous carbon-holey film into the sample solution. The TEM images were mainly taken in the hole region of the TEM grid to minimize the artificial effect from the samples or ice. […] Both peptides forms spherical and ellipsoidal clusters, with an average aggregate sizes of 40-80 nm for 25 and 50-150 nm for 26, which are generally smaller than the diameters observed by DLS. Consistent with the DLS study, Baa-Lys(FITC)-Lys8-OH (25) are more uniform in size than Baa-Lys(FITC)-NLS (26). FIGS. 9a and 9b show the vitreous ice cryo-TEM micrograph of the large aggregates (9a) and small aggregates (9b) formed by Baa-Lys(FITC)-Lys8-OH in PBS buffer (1 mg/mL at pH=7). There are two dominant groups in size for 25; one type has the diameter of 40-80 nm with predominant population at size of ca. 50 nm, and the other population has a diameter less than 20 nm, which may correspondent to the size of fullerene peptides itself. In contrast, the size distribution of 26 large aggregates is much polydisperse, ranging from 50-150 nm with no obvious dominant population for large aggregates, while smaller aggregates has similar size as Baa-Lys(FITC)-Lys8-OH. FIGS. 10a and 10b show the vitreous ice cryo-TEM micrograph of the large aggregates (10a) and small aggregates (10b) formed by Baa-Lys(FITC)-NLS in PBS buffer (1 mg/mL at pH=7). The aggregate sizes from the two peptides seem to be consistent with the hydrophilicity of peptide chain as more hydrophilic sequence corresponds to smaller size (25), and vice versa (26).

[4] = test system: HEK-293a cells; experiment: Cellular uptake by fluorescence microscopy; format: cell-based, human; settings: for cellular uptake / localization by fluorescence: 40 μM, 24 hrs, 37° C.; for Active Cellular Uptake: HEK-293a cells
Procedure: Cellular uptake. An immortalized human embryonic kidney epithelial cancer cell line was used in initial cellular uptake studies. HEK-293a cells were cultured in RMPI 1640 medium supplemented with 10% fetal bovine serum (FBS) in 5% CO2 and 37° C. humidified incubator. The medium was supplemented with penicillin (100 U·mL^−1), streptomycin (100 μg/mL), and glutamine (2 mM). For experiments and microscopy, cells were seeded at 1×10^4 cells per well on 6-well plates and grown for two days in RPMI supplemented with 10%. Cells were incubated with each peptide (40 μM) for 24 hrs at 37° C. After treatment, the cells were washed with RPMI supplemented with 10% FBS and phosphate buffered saline (PBS, 10 mM). Fluorescence was observed by a fluorescent microscope equipped with FITC and red filters.

[5] = test system: HEK-293a cells; experiment: Cellular uptake by fluorescence microscopy; format: cell-based, human
[6] = Antioxidant properties (IC50 determined by Csixty Inc. through an established method); format: biochemical
Source text: A plot of inhibition as a function of concentration for peptide 27 is shown in FIG. 18 with a comparison of Baa and Trolox. […] It is unclear at the present time the reason for the slight reduction in activity between Baa and Baa-Glu-Glu-Glu-Glu-Gly-Gly-Gly-Ser-OH. Given that the peptide's aggregation in aqueous solution presumably results in the “Glu-Glu-Glu-Glu-Gly-Gly-Gly-Ser-OH” being exposed to the solution, the sequence could act as a buffer limiting electron transfer processes.

[7] = test system: MCF-7 breast cancer cells; experiment: Cellular proliferation, CCK-8 assay; format: cell-based; settings: MCF-7, 48 h, concentration given with value
Procedure: (§2) Cellular proliferation studies. Cancer cells at 5×10^4 cells/well were plated in triplicate in standard flat-bottomed 96-well tissue culture plates in the presence of fullerene peptides in PBS buffer with a final volume of 100 μL. Unless otherwise indicated, cells were grown for 48 h at 37° C. in a CO2 incubator. Relative cell growth was determined by Cell Counting Kit-8 (CCK-8) cell proliferation assay as described by the manufacturer using an automated plate reader. Results were calculated in a blinded fashion and are the means of bi or triplicate determinations.
The effect of different Baa-peptide sequences on the cell viability of MCF-7 breast cancer cells was investigated to determine if the sequence has an effect rather than the presence of the C60. […] This is in agreement with the MTT cell viability test (see above). […] Clearly the sequence has a significant effect on the cell viability. However, it is worth noting that this may be due to either inherent differences in toxicity or differences in cellular uptake.

[8] = test system: MDA-MB neoroblastoma cells; experiment: Cellular proliferation, CCK-8 assay; format: cell-based; settings: 48 h
Procedure: as §2
A similar comparison has been made with MDA-MB neoroblastoma cells (FIG. 25) using H-Baa-Lys(FITC)-NLS (26), Baa-Penetratin (29) and Baa-Glu-Glu-Glu-Glu-Gly-Gly-Gly-Ser-OH (27). […] Given that both H-Baa-Lys(FITC)-NLS and Baa-Penetratin are cationic peptides which are readily taken up by the cells the cell inhibition cannot be a function of the uptake (i.e., intracellular concentration), but must also be dependent on the sequence.

[9] = Peptide secondary structure (CD) and appearance (TEM) as a function of pH; format: physicochemical; settings: for Secondary structure with decreasing pH: CD spectra; for Appearance / diameter of non-fibrous particles: TEM; for diameter of non-fibrous particles: micelles at pH 4 (21), precipitate particles at pH 6 and lower (22)
Procedure: as §1
Control of peptide secondary structure by fullerene amino acids. In an effort to understand the effect of the C60 substituents on the secondary structure of a peptide we have investigated two sequences and the position within a particular sequence. The well characterized model heptad peptides Glu-Ile-Ala-Gln-Leu-Glu-Tyr-Glu-Ile-Ser-Gln-Leu-Glu-Gln-NH2 (2HP, 22 in Table 1) […]NH2 (3HP, 23 in Table 1) were chosen because they are known to form fibers at pH below 7 concomitant with β-sheet formation. To investigate the effects of the presence and C60 on the conformation of the peptide the model peptide 2HP was prepared in which either tyrosine was replaced by Baa (21 in Table 1) or Baa was added to the C-terminus (22 in Table 1). The C-terminus derivative 23 was also prepared for 3HP.

[10] = test system: IMR32 cancer cell line; experiment: Cellular proliferation, CCK-8 assay; format: cell-based
Procedure: Cellular proliferation studies. Cancer cells at 5×10^4 cells/well were plated in triplicate in standard flat-bottomed 96-well tissue culture plates in the presence of fullerene peptides in PBS buffer with a final volume of 100 μL. Unless otherwise indicated, cells were grown for 48 h at 37° C. in a CO2 incubator. Relative cell growth was determined by Cell Counting Kit-8 (CCK-8) cell proliferation assay as described by the manufacturer using an automated plate reader. Results were calculated in a blinded fashion and are the means of bi or triplicate determinations. […] This difference is possibly because the relative propensity of Baa-2HP to precipitate under acidic conditions is less than that of Baa-3HP. Thus, the formation of aggregates of Baa-3HP would cause the inhibition of cell growth. However, we cannot discount alternative factors such as the sequence and its overall charge differences. For example, the strength of the aggregate may be greater for Baa-3HP than Baa-2HP due to the stronger self-assembly forces in 3HP.

Baa-(Lys)8-OH [Peptide 24]
aggregate size, major (or single) component [1]: ca. 200 nm | aggregate distribution, single broad aggregate ([1]; 0.25-2.0 mg/mL): 50-350 nm

Baa-Lys(FITC)-(Lys)8-OH [Peptide 25]
degradation of the sample in bovine plasma [2]: No degradation | aggregate size, minor smaller component [1]: ca. 10 nm | fraction of major aggregate component [1]: ca. 60% | third larger aggregate size at high concentration ([1]; 2.0 mg/mL (25), above 1.0 mg/mL (26)): ca. 1500 nm | distribution of minor smaller aggregate ([1]; 0.125-1.0 mg/mL): 5-20 nm | aggregate size, major (or single) component [1]: ca. 180 nm | average aggregate size (large aggregates) [3]: 40-80 nm | diameter of small aggregate population [3]: less than 20 nm | predominant population size of large aggregates [3]: ca. 50 nm | cellular uptake / localization by fluorescence ([4]; listed as H-Baa-Lys(FITC)-Lys8-OH): strong green fluorescence within the cytoplasm; also recorded: accumulates in the cytoplasm | Active Cellular Uptake [4]: Yes | cellular uptake at 4° C. [5]: no cellular uptake activity

Baa-Lys(FITC)-Glu-Glu-Glu-Glu-Gly-Gly-Gly-Ser-OH ({Baa″-Lys(FITC)}-EEEEGGGS-OH) [Peptide 28]
uptake intensity in comparison with the cationic fullerene peptides ([4]; same concentration, cell line not restated): greatly reduced

Cc1c(C)c2c(c(C)c1O)CCC(C)(C(=O)O)O2 (stereo not drawn) [Trolox, reference compound]
IC50 [6]: 480 µM

Baa-Arg-Gln-Ile-Lys-Ile-Trp-Phe-Gln-Asn-Arg-Arg-Met-Lys-Trp-Lys-Lys-OH (Baa-RQIKIWFQNRRMKWKK-OH; reading uncertain) [Peptide 29]
inhibition of cell growth [7]: significant inhibition effect at 31.4 μM | inhibition of cell growth [8]: significant inhibition for solutions above 8-14 μM

Glu-Ile-Ala-Gln-Leu-Glu-Baa-Glu-Ile-Ser-Gln-Leu-Glu-Gln-NH2 [Peptide 21]
Secondary structure with decreasing pH [9]: β-sheet | Appearance [9]: fibers^a | diameter of non-fibrous particles [9]: 8-10 nm

Glu-Ile-Ala-Gln-Leu-Glu-Tyr-Glu-Ile-Ser-Gln-Leu-Glu-Gln-Gln-Glu-Ile-Gln-Ala-Leu-Glu-Ser-NH2 (EIAQLEYEISQLEQQEIQALES-NH2) [Peptide 3HP, parent model heptad peptide without Baa, reference compound]
Secondary structure with decreasing pH [9]: random coil → α-helix | Appearance [9]: fibers

Baa-Glu-Ile-Ala-Gln-Leu-Glu-Tyr-Glu-Ile-Ser-Gln-Leu-Glu-Gln-Glu-Ile-Gln-Ala-Leu-Glu-Ser-NH2 ({Baa″}-EIAQLEYEISQLEQEIQALES-NH2) [Peptide 23]
Secondary structure with decreasing pH [9]: α-helix coiled | Appearance [9]: fibers | inhibition of cell growth [7]: no obvious inhibition | inhibition of cell growth [8]: no obvious inhibition | inhibition of cell growth ([10]; IMR32, 100 μg·mL^−1 (29.4 μM)): significant inhibition

Lys(FITC)-(Lys)8-OH [reference compound]
cellular uptake / localization by fluorescence [4]: no uptake | Active Cellular Uptake [4]: No

Baa-Glu-Ile-Ala-Gln-Leu-Glu-Tyr-Glu-Ile-Ser-Gln-Leu-Glu-Gln-NH2 ({Baa″}-EIAQLEYEISQLEQ-NH2) [Peptide 22]
Secondary structure with decreasing pH [9]: random coil → α-helix | Appearance [9]: aggregates | diameter of non-fibrous particles [9]: approximately 20 nm | inhibition of cell growth [7]: no obvious inhibition | inhibition of cell growth [8]: no obvious inhibition | inhibition of cell growth ([10]; IMR32, up to 37 μM): no inhibition

Baa-Glu-Glu-Glu-Glu-Gly-Gly-Gly-Ser-OH ({Baa″}-EEEEGGGS-OH) [Peptide 27]
IC50 [6]: 89 µM | antioxidant activity relative to Trolox ([6]; molar, from IC50): ca. five fold | inhibition of cell growth [7]: no cellular inhibition up to 57 μM | inhibition of cell growth [8]: significant inhibition for solutions above 8-14 μM

Glu-Ile-Ala-Gln-Leu-Glu-Tyr-Glu-Ile-Ser-Gln-Leu-Glu-Gln-NH2 (EIAQLEYEISQLEQ-NH2) [Peptide 2HP, parent model heptad peptide without Baa, reference compound]
Secondary structure with decreasing pH [9]: random coil → α-helix → β-sheet | Appearance [9]: fibers
